Results reported in ChEMBL document CHEMBL1125524, “Adenosine A1 antagonists. 2. Structure-activity relationships on diuretic activities and protective effects against acute renal failure” (J Med Chem, 1992).
pKi: −log10 of the molar value.

Assays:
Rattus norvegicus [1] = experiment: Ratio of urinary excretion value (urinary volume) in treated rats to that in control rats, at a peroral dose of 6.25 mg/Kg; assay type: functional, Urine
Rattus norvegicus [2] = experiment: Percent inhibition of serum creatinine by the compound given as ratio of Cr value in treated to vehicle treated ones after intraperitoneal administration of 1 mg/kg of compound to rats(vehicle 2.89+/-0.42); assay type: functional; conditions: ip
Rattus norvegicus [3] = experiment: Percent inhibition of Urea nitrogen by the compound given as ratio of UN value in treated to vehicle treated ones after intraperitoneal administration of 1 mg/kg of compound to rats(vehicle 107.7+/-15.2); assay type: functional; conditions: ip
Rattus norvegicus [4] = experiment: Urea nitrogen concentration measured after intraperitoneal administration of 1 mg/kg of compound to rats(vehicle 107.7+/-15.2); assay type: functional
Rattus norvegicus [5] = experiment: Ratio of sodium ion/potassium ion concentration in treated rats to that in control rats, at a peroral dose of 1.6 mg/Kg; assay type: functional
Rattus norvegicus [6] = experiment: Ratio of sodium ion/potassium ion concentration in treated rats to that in control rats, at a peroral dose of 0.4 mg/Kg; assay type: functional
Rattus norvegicus [7] = experiment: Serum creatinine concentration measured after intraperitoneal administration of 1 mg/kg of compound to rats(vehicle 3.91+/-0.37); assay type: functional
Rattus norvegicus [8] = experiment: Oral diuretic activity was measured after oral administration of 0.4 mg/kg to rats(control volume is 0.99+/-0.07); assay type: functional, Urine
Rattus norvegicus [9] = experiment: Effect on urinary excretion potassium and sodium after oral administration of 1.6 mg/kg to rats(potassium and sodium excretion in control rat is 0.183+/-0.012); assay type: functional, Urine
Rattus norvegicus [10] = experiment: Percent inhibition of serum creatinine by the compound given as ratio of Cr value in treated to vehicle treated ones after intraperitoneal administration of 1 mg/kg of compound to rats(vehicle 3.91+/-0.37); assay type: functional; conditions: ip
Rattus norvegicus [11] = experiment: Effect on urinary excretion potassium and sodium after oral administration of 0.4 mg/kg to rats(potassium and sodium excretion in control rat is 0.191+/-0.021); assay type: functional, Urine
Rattus norvegicus [12] = experiment: Serum creatinine concentration measured after intraperitoneal administration of 1 mg/kg of compound to rats(vehicle 2.89+/-0.42); assay type: functional
Rattus norvegicus [13] = experiment: Ratio of urinary excretion value (urinary volume) in treated rats to that in control rats, at a peroral dose of 0.4 mg/Kg; assay type: functional, Urine
Rattus norvegicus [14] = experiment: Ratio of urinary excretion value (urinary volume) in treated rats to that in control rats, at a peroral dose of 1.6 mg/Kg; assay type: functional, Urine
Rattus norvegicus [15] = experiment: Urea nitrogen concentration measured after intraperitoneal administration of 1 mg/kg of compound to rats(vehicle 128.9+/-9.3); assay type: functional
Rattus norvegicus [16] = experiment: Ratio of urinary excretion value (Na+ concentration) in treated rats to that in control rats, at a peroral dose of 6.25 mg/Kg; assay type: functional, Urine
Rattus norvegicus [17] = experiment: Percent inhibition of Urea nitrogen by the compound given as ratio of UN value in treated to vehicle treated ones after intraperitoneal administration of 1 mg/kg of compound to rats(vehicle 128.9+/-9.3); assay type: functional; conditions: ip
Rattus norvegicus [18] = experiment: Ratio of urinary excretion value (Na+ concentration) in treated rats to that in control rats, at a peroral dose of 0.4 mg/Kg; assay type: functional, Urine
Adenosine A2 receptor = Adenosine A2 receptor (Rattus norvegicus, UniProt P29276+P30543)
Rattus norvegicus [19] = experiment: Oral diuretic activity was measured after oral administration of 1.6 mg/kg to rats(control volume is 0.82+/-0.05); assay type: functional, Urine
Rattus norvegicus [20] = experiment: Ratio of urinary excretion value (Na+ concentration) in treated rats to that in control rats, at a peroral dose of 1.6 mg/Kg; assay type: functional, Urine
Rattus norvegicus [21] = experiment: Serum creatinine concentration measured after intraperitoneal administration of 0.1 mg/kg of compound to rats(vehicle 5.08+/-0.14); assay type: functional
Rattus norvegicus [22] = experiment: Effect on urinary excretion potassium and sodium after oral administration of 0.01 mg/kg to rats(potassium and sodium excretion in control rat is 0.191+/-0.020); assay type: functional, Urine
Rattus norvegicus [23] = experiment: Urea nitrogen concentration measured after intraperitoneal administration of 0.01 mg/kg of compound to rats(vehicle 143.9+/-12.2); assay type: functional
Rattus norvegicus [24] = experiment: Effect on urinary excretion potassium and sodium after oral administration of 0.1 mg/kg to rats(potassium and sodium excretion in control rat is 0.179+/-0.038); assay type: functional, Urine
Rattus norvegicus [25] = experiment: Ratio of urinary excretion value (urinary volume) in treated rats to that in control rats, at a peroral dose of 0.01 mg/Kg; assay type: functional, Urine
Rattus norvegicus [26] = experiment: Percent inhibition of Urea nitrogen by the compound given as ratio of UN value in treated to vehicle treated ones after intraperitoneal administration of 0.01 mg/kg of compound to rats(vehicle 143.9+/-12.2); assay type: functional; conditions: ip
Rattus norvegicus [27] = experiment: Oral diuretic activity was measured after oral administration of 0.1 mg/kg to rats(control volume is 0.75+/-0.12); assay type: functional, Urine
Rattus norvegicus [28] = experiment: Ratio of urinary excretion value (Na+ concentration) in treated rats to that in control rats, at a peroral dose of 0.01 mg/Kg; assay type: functional, Urine
Rattus norvegicus [29] = experiment: Oral diuretic activity was measured after oral administration of 0.01 mg/kg to rats(control volume is 1.15+/-0.17); assay type: functional, Urine
Rattus norvegicus [30] = experiment: Percent inhibition of Urea nitrogen by the compound given as ratio of UN value in treated to vehicle treated ones after intraperitoneal administration of 0.1 mg/kg of compound to rats(vehicle 165.3+/-4); assay type: functional; conditions: ip
Rattus norvegicus [31] = experiment: Urea nitrogen concentration measured after intraperitoneal administration of 0.1 mg/kg of compound to rats(vehicle 165.3+/-4); assay type: functional
Rattus norvegicus [32] = experiment: Percent inhibition of Urea nitrogen by the compound given as ratio of UN value in treated to vehicle treated ones after intraperitoneal administration of 1 mg/kg of compound to rats(vehicle 171.5+/-7.7); assay type: functional; conditions: ip
Rattus norvegicus [33] = experiment: Percent inhibition of serum creatinine by the compound given as ratio of Cr value in treated to vehicle treated ones after intraperitoneal administration of 1 mg/kg of compound to rats(vehicle 4.27+/-0.24); assay type: functional; conditions: ip
Rattus norvegicus [34] = experiment: Serum creatinine concentration measured after intraperitoneal administration of 0.01 mg/kg of compound to rats(vehicle 4.09+/-0.39); assay type: functional
Rattus norvegicus [35] = experiment: Ratio of urinary excretion value (urinary volume) in treated rats to that in control rats, at a peroral dose of 0.1 mg/Kg; assay type: functional, Urine
Rattus norvegicus [36] = experiment: Ratio of sodium ion/potassium ion concentration in treated rats to that in control rats, at a peroral dose of 0.01 mg/Kg; assay type: functional
Rattus norvegicus [37] = experiment: Percent inhibition of serum creatinine by the compound given as ratio of Cr value in treated to vehicle treated ones after intraperitoneal administration of 0.01 mg/kg of compound to rats(vehicle 4.09+/-0.39); assay type: functional; conditions: ip
Rattus norvegicus [38] = experiment: Ratio of sodium ion/potassium ion concentration in treated rats to that in control rats, at a peroral dose of 0.1 mg/Kg; assay type: functional
Rattus norvegicus [39] = experiment: Urea nitrogen concentration measured after intraperitoneal administration of 1 mg/kg of compound to rats(vehicle 171.5+/-7.7); assay type: functional
Rattus norvegicus [40] = experiment: Percent inhibition of serum creatinine by the compound given as ratio of Cr value in treated to vehicle treated ones after intraperitoneal administration of 0.1 mg/kg of compound to rats(vehicle 5.08+/-0.14); assay type: functional; conditions: ip
Adenosine receptor A1 = molecular target: T1, Adenosine receptor A1 (Cavia porcellus, UniProt P47745)
T1 sequence (P47745 whole entry): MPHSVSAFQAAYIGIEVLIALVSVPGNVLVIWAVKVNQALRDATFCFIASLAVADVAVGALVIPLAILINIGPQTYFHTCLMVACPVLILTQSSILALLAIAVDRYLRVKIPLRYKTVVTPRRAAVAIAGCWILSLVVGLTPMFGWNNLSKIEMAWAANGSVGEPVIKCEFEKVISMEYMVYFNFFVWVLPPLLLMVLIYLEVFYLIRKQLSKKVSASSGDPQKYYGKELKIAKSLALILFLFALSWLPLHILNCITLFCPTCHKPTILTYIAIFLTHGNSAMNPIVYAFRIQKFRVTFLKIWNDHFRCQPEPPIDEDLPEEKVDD
Description: Binding affinity against adenosine A1 receptor in guinea pig forebrain membranes using N6-[3H]cyclohexyladenosine as radioligand

Rattus norvegicus [41] = experiment: Serum creatinine concentration measured after intraperitoneal administration of 1 mg/kg of compound to rats(vehicle 4.27+/-0.24); assay type: functional
Rattus norvegicus [42] = experiment: Effect on urinary excretion potassium and sodium after oral administration of 1.6 mg/kg to rats(potassium and sodium excretion in control rat is 0.173+/-0.015); assay type: functional, Urine
Rattus norvegicus [43] = experiment: Ratio of urinary excretion value (Na+ concentration) in treated rats to that in control rats, at a peroral dose of 0.1 mg/Kg; assay type: functional, Urine
Rattus norvegicus [44] = experiment: Oral diuretic activity was measured after oral administration of 1.6 mg/kg to rats(control volume is 0.93+/-0.03); assay type: functional, Urine

CCCn1c(=O)c2c(nc(C(C3CC3)C3CC3)n2C)n(CCC)c1=O
T/C (Rattus norvegicus [1]): 1.78 | inhibition in vivo at 1 mg/kg (Rattus norvegicus [2]): 44% | inhibition in vivo at 1 mg/kg (Rattus norvegicus [3]): 50% | UN (Rattus norvegicus [4]): 54.1 mg/dL | Na+/K+ (Rattus norvegicus [5]): 1.21 | Na+/K+ (Rattus norvegicus [6]): 0.94 | Cr (Rattus norvegicus [7]): 4.49 mg/dL | Urine volume (Rattus norvegicus [8]): 0.96 ml 6hr-1 100g-1 | Na (Rattus norvegicus [9]): 0.271 m equiv 6hr-1 100g-1 | inhibition in vivo at 1 mg/kg (Rattus norvegicus [10]): -15% | Na (Rattus norvegicus [11]): 0.174 m equiv 6hr-1 100g-1 | Cr (Rattus norvegicus [12]): 1.63 mg/dL | T/C (Rattus norvegicus [13]): 0.97 | T/C (Rattus norvegicus [14]): 1.8 | UN (Rattus norvegicus [15]): 136.5 mg/dL | T/C (Rattus norvegicus [16]): 2.14 | inhibition in vivo at 1 mg/kg (Rattus norvegicus [17]): 6% | T/C (Rattus norvegicus [18]): 0.91 | pKi (Adenosine A2 receptor): 4.54 | Urine volume (Rattus norvegicus [19]): 1.48 ml 6hr-1 100g-1 | T/C (Rattus norvegicus [20]): 1.48

CC(C)Cn1c(=O)n(C)c(=O)c2[nH]c(C3CCCC3)nc21
Cr (Rattus norvegicus [21]): 2.79 mg/dL | Na (Rattus norvegicus [22]): 0.257 m equiv 6hr-1 100g-1 | UN (Rattus norvegicus [23]): 106.4 mg/dL | Na (Rattus norvegicus [24]): 0.308 m equiv 6hr-1 100g-1 | T/C (Rattus norvegicus [25]): 1.14 | inhibition in vivo at 0.01 mg/kg (Rattus norvegicus [26]): 26% | Urine volume (Rattus norvegicus [27]): 1.59 ml 6hr-1 100g-1 | T/C (Rattus norvegicus [28]): 1.35 | Na+/K+ (Rattus norvegicus [5]): 1.57 | Urine volume (Rattus norvegicus [29]): 1.31 ml 6hr-1 100g-1 | inhibition in vivo at 0.1 mg/kg (Rattus norvegicus [30]): 35% | UN (Rattus norvegicus [31]): 107.3 mg/dL | inhibition in vivo at 1 mg/kg (Rattus norvegicus [32]): 36% | inhibition in vivo at 1 mg/kg (Rattus norvegicus [33]): 40% | Cr (Rattus norvegicus [34]): 3.08 mg/dL | T/C (Rattus norvegicus [35]): 2.12 | Na+/K+ (Rattus norvegicus [36]): 1.22 | inhibition in vivo at 0.01 mg/kg (Rattus norvegicus [37]): 25% | Na+/K+ (Rattus norvegicus [38]): 1.55 | T/C (Rattus norvegicus [14]): 2.12 | UN (Rattus norvegicus [39]): 109.5 mg/dL | inhibition in vivo at 0.1 mg/kg (Rattus norvegicus [40]): 45% | pKi (Adenosine receptor A1): 7.48 | Cr (Rattus norvegicus [41]): 2.54 mg/dL | Na (Rattus norvegicus [42]): 0.379 m equiv 6hr-1 100g-1 | T/C (Rattus norvegicus [43]): 1.72 | Ki (Adenosine A2 receptor): 880 nM | Urine volume (Rattus norvegicus [44]): 1.97 ml 6hr-1 100g-1 | T/C (Rattus norvegicus [20]): 2.19
